Literature values in patent publication US20230309840A1, “TARGETING ABNORMAL CELL POPULATIONS FOR APOPTOSIS” (priority 2020, published 2023).

What was measured:
[1] = system: senescent cells
[2] = system: cancer cells; settings: for anti-cancer activity: compared with curcumin
[3] = system: prostate cancer (Pica) cell
[4] = system: Drosophila melanogaster; settings: in vivo
[5] = system: Caenorhabditis elegans; settings: in vivo
[6] = in vivo
[7] = system: airway inflammation and oxidative stress
[8] = system: cancer cell lines
[9] = system: tumor; settings: tumor-bearing mouse model, vs free cisplatin
[10] = system: senescent human fibroblasts; settings: at 100 μM
[11] = system: control cells

Compound: O=C1/C(=C/c2ccccc2F)CNC/C1=C\c1ccccc1F [EF24]
- killing of senescent cells in combination ([1]; combined with Navitoclax): synergistically kill senescent cells
- cell viability of senescent cells ([1]; variety of senescent cells): selectively decrease the cell viability
- anti-cancer activity [2]: more efficacious against various cancer cells
- potency in inducing cancer cell death ([2]; relative to curcumin): 10 fold

Compound: CC(C)=CCC/C(C)=C/CC/C(C)=C/CC[C@]1(C)CCc2cc(O)c(C)c(C)c2O1 [γ-Tocotrienols]
- inhibition of cell proliferation and invasion [3]: potent and specific inhibitor

Compound: COc1cc(/C=C/C(=O)CC(=O)/C=C/c2ccc(O)c(OC)c2)ccc1O [curcumin, Curcumin]
- lifespan and health span [4]: prolong lifespan and extend health span
- lifespan and health span [5]: prolong lifespan and extend health span
- bioavailability [6]: poor oral bioavailability
- solubility in water: low aqueous solubility

Compound: CC1(C)C=C(CN2C/C(=C\c3ccc(F)cc3)C(=O)/C(=C/c3ccc(F)cc3)C2)C(C)(C)N1O [HO-3867]
- anti-cancer activity [2]: better anti-cancer activities than curcumin

Compound: O=c1c(O)c(-c2ccc(O)c(O)c2)oc2cc(O)cc(O)c12 [Quercetin]
- bioavailability [6]: very low
- solubility in water: poorly soluble in water

Compound: [HH] [hydrogen gas, hydrogen]
- number of total cells, eosinophils, and lymphocytes ([7]; bronchial alveolar lavage fluid, inhalation): significantly reduced
- IL-4 serum level ([7]; following inhalation): significantly decreased
- activity of superoxide dismutase ([7]; inhalation): markedly upregulated
- increased level of malondialdehyde and myeloperoxidase ([7]; inhalation): significantly attenuated
- level of IL-4, IL-13, TNF-α and chemokine (C-X-C motif) ligand 15 ([7]; inhalation): increased the level

Compound: C[C@H]1[C@H](OC(=O)CCC(=O)O)O[C@@H]2O[C@@]3(C)CC[C@H]4[C@H](C)CC[C@@H]1[C@@]24OO3 [Artesunate]
- effect on cancer cell lines [8]: cytotoxic effects

Compound: COc1ccc(/C=C/C(=O)CC(=O)/C=C/c2ccc(OC)c(OC)c2)cc1OC [DIMC, dimethoxycurcumin]
- anti-cancer activity [2]: better anti-cancer activities than curcumin

Compound: Tf-cisplatin complex: transferrin (Tf) conjugated cisplatin
- toxicity in other tissues [9]: less toxicity in other tissues
- tumor growth inhibition [9]: inhibited tumor growth in vivo more effectively than free cisplatin

Compound: CC[C@H]1OC(=O)[C@H](C)[C@@H](O[C@H]2C[C@@](C)(OC)[C@@H](O)[C@H](C)O2)[C@H](C)[C@@H](O[C@@H]2O[C@H](C)C[C@H](N(C)C)[C@H]2O)[C@](C)(O)C[C@@H](C)CN(C)[C@H](C)[C@@H](O)[C@]1(C)O [Azithromycin]
- elimination of senescent cells [10]: selectively eliminated large numbers of senescent cells
- effect on control cells [11]: without affecting control cells

Compound: CC[C@H]1OC(=O)[C@H](C)[C@@H](O[C@H]2C[C@@](C)(OC)[C@@H](O)[C@H](C)O2)[C@H](C)[C@@H](O[C@@H]2O[C@H](C)C[C@H](N(C)C)[C@H]2O)[C@](C)(O)C[C@@H](C)/C(=N\OCOCCOC)[C@H](C)[C@@H](O)[C@]1(C)O [Roxithromycin]
- elimination of senescent cells [10]: selectively eliminated large numbers of senescent cells
